The values below come from PMC11836371, “Virtual fragment screening for DNA repair inhibitors in vast chemical space” (Nature Communications, 2025).

Molecules are shown by their SMILES. “And” between values parts separate entries of the source, which are not always exact repeats. Equal values may be shown once. A value given as a limit tells only on which side of the number the result lay.

A short description of data set [1]: Plasma protein binding in human plasma (RED). Type of data set: in vitro ADME. The conditions noted are these: plasma (50% plasma, 50% isotonic buffer), pH 7.4, read-out: Protein plasma binding, fu (%). As for the experimental part:
Pooled human plasma was provided by Uppsala Academic Hospital and was collected from two donors (non-smoking) (citric acid). In brief, 0.2 mL of the plasma (50% plasma, 50% isotonic buffer) test solution (typically 10 µM final compound concentration) was transferred to the membrane tube in the RED insert (ThermoFisher Scientific). 0.35 ml isotonic phosphate buffer pH 7.4 was added to the other side of the membrane. The 96-well base plate was then sealed with an adhesive plastic film (Scotch Pad) to prevent evaporation. The sample was incubated with rapid rotation (>>900 rpm) on a Kisker rotational incubator at 37 °C for 4 h to achieve equilibrium. Prior to LC-MS/MS analysis the plasma and buffer samples were treated with the addition of Methanol (1:3) containing Warfarin as an internal standard to precipitate proteins. The standard curve was created using the plasma standard. The plate was then sealed, and centrifuged and the supernatant was analyzed by liquid chromatography coupled to triple quadrupole mass spectrometry (LC-MS/MS).

Data set [2] in a line: Caco-2 cell permeability assay. Type of data set: in vitro ADME. The settings on record: human, Caco-2, pH 7.4. As for the experimental part:
Prior to the experiment a drug solution of 10 µM was prepared and warmed to 37 °C. The Caco-2 filters were washed with pre-warmed HBSS prior to the experiment, and thereafter the experiment was started by applying the donor solution on the apical or basolateral side. The transport experiments were carried out at pH 7.4 in both the apical and basolateral chamber. The experiments were performed at 37 °C and with a stirring rate of 500 rpm. The receiver compartment was sampled at 15, 30, and 60 min, and at 60 min also a final sample from the donor chamber was taken to calculate the mass balance of the compound. The samples (100 µL) were transferred to a 96-well plate containing 100 µL methanol and Warfarin as IS and was sealed until analyzed by liquid chromatography coupled to triple quadrupole mass spectrometry (LC-MS/MS).
(In general: Caco-2 monolayers are a common model of the intestinal barrier.)

The nature of data set [3]: Cell viability assay (resazurin), BJhTERT non-transformed control. The class given is cell-based. The settings on record: human, BJhTERT immortalized fibroblast cells, BJhTERT, 100 μM, two independent experiments; read-out: percentage cell viability. The essentials:
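Cells in FBS-supplemented media exposed to compound for 72 h at 37 °C, 5% CO2, then resazurin added to 10 µg/mL final. Viability expressed relative to untreated control wells; EC50 derived by curve fitting.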

In data set [4] the target is NEIL1 (Homo sapiens, UniProt Q96FI4). As to the kind of experiment: biochemical.
NEIL1, sequence (Q96FI4 whole entry, species assumed): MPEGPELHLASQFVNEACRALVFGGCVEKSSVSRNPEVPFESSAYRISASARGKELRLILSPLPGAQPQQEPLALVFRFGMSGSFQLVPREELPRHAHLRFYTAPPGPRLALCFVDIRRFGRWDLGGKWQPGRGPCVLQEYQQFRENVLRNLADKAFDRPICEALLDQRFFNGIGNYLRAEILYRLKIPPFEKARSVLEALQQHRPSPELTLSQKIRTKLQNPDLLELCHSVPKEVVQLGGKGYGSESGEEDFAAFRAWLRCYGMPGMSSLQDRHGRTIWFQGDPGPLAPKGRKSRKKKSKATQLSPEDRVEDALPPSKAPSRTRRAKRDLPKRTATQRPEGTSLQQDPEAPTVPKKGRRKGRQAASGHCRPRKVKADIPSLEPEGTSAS
Procedure: (§1) Inhibition of the following enzymes was assessed in the selectivity assays: apurinic/apyrimidinic endonuclease (APE1), endonuclease 8-like 1 (NEIL1), oxidized purine nucleoside triphosphate hydrolase (MTH1) and single-strand selective monofunctional uracil DNA glycosylase (SMUG1). BER enzymes were assayed with a similar strategy as OGG1, using identical DNA sequences surrounding the substrate lesion and the same reaction buffer containing 2 nM APE1. To assess SMUG1 inhibition, a 375 nM substrate containing uracil opposite guanine and 0.3 U SMUG1 enzyme (M0336 from New England Biolabs) was used. To assess NEIL1 inhibition, a 20 nM substrate containing thymidine glycol opposite adenine and 10 nM NEIL1 was used. […] All BER inhibition assays were in the linear range and less than 40% of the total substrate had been consumed at readout. The experiments were performed in three independent replicates and the percentage inhibition was calculated relative to the signal of a DMSO-treated control. […] The produced free phosphate was then detected using the malachite green assay[76]. […] Absorbance was read at 630 nm using a Hidex Sense plate reader after a period of incubation with the methylene green reagent of 15 minutes. The experiment was performed in three independent replicates and percentage inhibition was calculated relative to the signal of a DMSO-treated control.
Data set [5] addresses human OGG1 enzyme (Homo sapiens, UniProt O15527). As to the kind of experiment: Differential scanning fluorimetry (DSF) thermal shift assay. The class given is binding. Details: ∆Tm (K): unit of the concentration uncertain. As for the experimental part:
The temperature was increased from 20 °C to 85 °C with 10 readings/degree. Tm values were calculated using an excel template and fitting to the Boltzmann equation in Prism v.6.07 (GraphPad Software).
A general note: DSF heats the sample and reads unfolding from a dye or from intrinsic fluorescence.

Data set [6] addresses APE1 (Homo sapiens, UniProt P27695). As to the kind of experiment: biochemical.
Procedure: as §1
Data set [7] deals with HCT116 cells. As to the kind of experiment: Cancer cell viability assay (resazurin), HCT116. The settings on record: two independent experiments. The class given is cell-based. The method in brief: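 Cells were exposed for 72 h at 37 °C, 5% CO2 to 11-point compound dose-response curves in 10% FBS medium. Resazurin (final 10 µg/mL) was then added for 6 h and resorufin fluorescence read (ex 544/em 595 nm). Viability relative to untreated wells; EC50 from curve fitting.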
(In general: The colour change of resazurin is a common sign of viable cells or microbes.)

Data set [8] has as its target T1, SMUG1 (Homo sapiens, UniProt Q53HV7).
T1 construct: purchased New England Biolabs M0336
T1 sequence (Q53HV7 1-270): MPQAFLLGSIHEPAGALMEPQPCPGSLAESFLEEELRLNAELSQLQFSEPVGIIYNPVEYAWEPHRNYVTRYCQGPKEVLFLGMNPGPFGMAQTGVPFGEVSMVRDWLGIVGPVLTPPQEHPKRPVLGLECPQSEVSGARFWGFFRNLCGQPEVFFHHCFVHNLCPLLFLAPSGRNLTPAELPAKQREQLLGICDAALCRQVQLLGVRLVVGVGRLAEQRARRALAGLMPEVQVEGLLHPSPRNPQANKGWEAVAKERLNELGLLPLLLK
As to the kind of experiment: BER enzyme selectivity assay, SMUG1. Type of data set: biochemical. The settings on record: Figure 3B, three independent experiments.
Procedure: as §1

In data set [9] the target is MTH1 (Homo sapiens, UniProt P36639). As to the kind of experiment: biochemical.
Procedure: Inhibition of the following enzymes was assessed in the selectivity assays: apurinic/apyrimidinic endonuclease (APE1), endonuclease 8-like 1 (NEIL1), oxidized purine nucleoside triphosphate hydrolase (MTH1) and single-strand selective monofunctional uracil DNA glycosylase (SMUG1). BER enzymes were assayed with a similar strategy as OGG1, using identical DNA sequences surrounding the substrate lesion and the same reaction buffer containing 2 nM APE1. To assess SMUG1 inhibition, a 375 nM substrate containing uracil opposite guanine and 0.3 U SMUG1 enzyme (M0336 from New England Biolabs) was used. To assess NEIL1 inhibition, a 20 nM substrate containing thymidine glycol opposite adenine and 10 nM NEIL1 was used. To assess APE1 inhibition, an UNG2 substrate was pre-treated with E. coli Uracil-DNA glycosylase (New England Biolabs M0280) to generate an AP-site opposite adenine, which was used at 10 nM concentration in the presence of 0.1 nM APE1. All BER inhibition assays were in the linear range and less than 40% of the total substrate had been consumed at readout. The experiments were performed in three independent replicates and the percentage inhibition was calculated relative to the signal of a DMSO-treated control. To assess MTH1 inhibition, MTH1-catalyzed dGTP hydrolysis was coupled to inorganic pyrophosphatase (PPase), thereby releasing inorganic phosphate. The produced free phosphate was then detected using the malachite green assay[76]. […] Substrate concentration at the Km value for the respective substrate was chosen if possible. Inhibition using 100 μM compound was tested in reaction buffer (100 mM Tris-Acetate pH 8.0, 10 mM magnesium acetate, 40 mM NaCl, 1 mM DTT, and 0.005% Tween-20). Samples were incubated with shaking at 22 °C for 15 minutes. The reaction was then stopped by the addition of the malachite green reagent[76]. Absorbance was read at 630 nm using a Hidex Sense plate reader after a period of incubation with the methylene green reagent of 15 minutes. The experiment was performed in three independent replicates and percentage inhibition was calculated relative to the signal of a DMSO-treated control.

human OGG1 enzyme, sequence (O15527 whole entry): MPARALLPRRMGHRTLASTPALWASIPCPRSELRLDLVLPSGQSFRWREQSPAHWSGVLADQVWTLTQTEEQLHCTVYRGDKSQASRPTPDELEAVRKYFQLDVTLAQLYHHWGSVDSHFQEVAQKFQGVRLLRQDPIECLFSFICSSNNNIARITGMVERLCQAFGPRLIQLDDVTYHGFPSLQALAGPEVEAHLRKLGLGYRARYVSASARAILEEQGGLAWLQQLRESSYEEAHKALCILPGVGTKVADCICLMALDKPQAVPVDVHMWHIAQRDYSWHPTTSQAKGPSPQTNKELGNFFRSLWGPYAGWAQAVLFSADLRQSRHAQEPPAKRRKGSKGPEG
APE1, sequence (P27695 whole entry, species assumed): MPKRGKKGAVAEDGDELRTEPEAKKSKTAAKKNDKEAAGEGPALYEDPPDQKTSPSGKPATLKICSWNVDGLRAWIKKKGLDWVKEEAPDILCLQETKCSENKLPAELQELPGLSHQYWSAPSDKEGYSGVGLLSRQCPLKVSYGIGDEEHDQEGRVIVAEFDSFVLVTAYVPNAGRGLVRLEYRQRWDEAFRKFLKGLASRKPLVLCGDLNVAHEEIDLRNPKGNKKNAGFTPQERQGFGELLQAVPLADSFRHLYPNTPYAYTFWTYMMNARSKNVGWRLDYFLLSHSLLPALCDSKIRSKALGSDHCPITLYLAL

On to `Cc1nc(-c2ccc(CC(=O)Nc3noc4c3CCCC4)cc2)c(C)[nH]1` [compound 17], for which the fraction unbound at 4 h, 10 µM in [1] was 0.014. Further, the efflux ratio at 60 min, 10 µM in [2] amounted to 6.7. For the same compound, the Papp A→B at 60 min, 10 µM in data set [2] (read-out: Papp AB (10–6 cm/s)) worked out at 19.8 ×10⁻⁶ cm/s. Moreover, the Papp B→A at 60 min, 10 µM in data set [2] (read-out: Papp BA (10–6 cm/s)) was 134 ×10⁻⁶ cm/s. The viability at 72 h, 100 µM in data set [3] worked out at 28%. In addition, the IC50 was over 99 µM in [4]; over 99 µM in data set [6]; over 99 µM in [8]; 24.3 µM and 20.6 µM and 24.9 µM in data set [9]. Further, the “∆Tm (K)” value is given as 8.1 ± 0.1 K in [5] (99 μM); 8.1 K in data set [5] (99 μM, listed as Compound 17); 8.1 ± 0.1 K in data set [5] (99 (unit uncertain) as printed in sheet footnote). Besides, the ΔTm in data set [5] (concentration not given) amounted to 8.1 K. In addition, the percentage cell viability in data set [7] (HCT116, 100 μM, 100 µM) was found to be 23.58%. Further, in data set [7] (Homo sapiens, HCT-116, HCT116, 100 μM, read-out: percentage cell viability), the viability at 100 µM was 11.8%.

The term efflux ratio denotes the permeability from basolateral to apical divided by that in the opposite direction, in the common usage. By viability is commonly meant a read-out of living cells in per cent, often relative to untreated cells. In general, IC50 refers to the midpoint of a concentration-inhibition curve.
